Data reported in US7501410B2, “Methods of inhibiting BTK and SYK protein kinases” (Roche Palo Alto LLC, priority 2006, dated 2009).
Values joined by “and” are separate entries in the source; they are usually repeats but may differ in a detail not shown here. Equal values may be shown once.

Biological target: T1, Spleen Tyrosine Kinase (SYK) aa 360-635 (Homo sapiens, UniProt P43405)
T1 construct: truncated construct of Spleen Tyrosine Kinase aa 360-635; made in house
Assay: Determination of IC50 of Spleen Tyrosine Kinase (SYK) inhibition, 33P kinase assay
Type: biochemical
Settings: recombinant human SYK360-635, 20 μM ATP; read-out: IC50 (μM) SYK Assay
Experimental: Determination of IC50 of Spleen Tyrosine Kinase (SYK) Inhibition
The SYK kinase assay is a standard kinase assay adapted to a 96 well plate format. This assay is performed in 96-well format for IC50 determination with 8 samples which represented 10 half log dilutions and a 40 μL reaction volume. The assay measures the incorporation of radiolabeled ^33P γATP into an N-terminally biotinylated peptide substrate, derived from naturally occurring phosphoacceptor consensus sequence (Biotin-11aa DY*E). Phosphorylated products were detected upon termination of reactions with EDTA and the addition of Streptavidin coated beads. • Assay plates: 96-well MultiScreen 0.65 um filter plates (Millipore Cat. No.: MADVNOB10) • Streptavidin coated beads: Streptavidin Sepharose TM, suspension 5.0 mL, in 50 mM EDTA/PBS diluted (1:100), (Amersham, Cat. No.: 17-5113-01) • Compounds: 10 mM in 100% dimethylsulfoxide (DMSO), final conc.: compound 0.003-100 uM in 10% DMSO • Enzyme: SYK RPA purified, truncated construct of Spleen Tyrosine Kinase aa 360-635, stock solution 1 mg/mL, MW: 31.2 KDa, final conc.:0.0005 μM. • Peptide 1: biotinylated peptide is derived from a naturally occurring phosphor-acceptor consensus sequence (Biotin-[…]), special order from QCB, stock solution 20 mM, final conc.: 5.0 μM. • ATP: Adenosine-5′-triphosphate 20 mM, (ROCHE Cat. No.:93202720), final concentration: 20 μM • Buffer: HEPES: 2-Hydroxyethyl piperazine-2-ethanesulfonic acid (Sigma, Cat. No.: H-3375) final concentration: 50 mM HEPES pH7.5 • BSA: Bovine Serum Albumin Fraction V, fatty acid free (Roche Diagnostics GmbH, Cat. No. 9100221) diluted to a final concentration of 0.1% • EDTA: EDTA stock solution 500 mM, (GIBCO, Cat. No.: 15575-038) final concentration: 0.1 mM • DTT: 1,4-Dithiothreitol (Roche Diagnostics GmbH, Cat. No.: 197777), final conc.: 1 mM • MgCl2×6H2O: MERCK, Cat. No.: 105833.1000, final concentration: 10 mM • Assay Dilution Buffer (ADB): 50 mM HEPES, 0.1 mM EGTA, 0.1 mM Na Vanadate, 0.1 mM β-glycerophosphate, 10 mM MgCl2, 1 mM DTT, 0,1% BSA, pH 7.5 • Bead wash buffer: 10 g/L PBS (Phosphate buffered saline) with 2M NaCl+1% phosphoric acid Experimental Method:
In 40 μL volume, 26 μL of ADB diluted, purified recombinant human SYK360-635 [0.5 nM] was mixed with 4 μL of 10× concentrations of the test compounds, [usually 100 μM-0.003 μM] in [10%] DMSO and the mixture was incubated for 10 min at RT.
The kinase reaction was initiated by the addition of 10 μL 4× substrate cocktail containing the DYE peptide substrate [0 or 5 μM], ATP [20 μM] and […] [2 μCi/rxn]. After incubation at 30° C. for 15 min, the reaction was terminated by the transfer of 25 μL of the reaction sample to a 96 well 0.65 um Millipore MADVNOB membrane/plate containing 200 μL 5 mM EDTA and 20% Streptavidine coated beads in PBS.
The unbound radionucleotides were washed under vacuum with 3×250 μL 2M NaCl; 2×250 μL 2M NaCl+1% phosphoric acid; 1×250 μL H2O. After the last wash membrane/plates were transferred to an adaptor plate, heat dried for 15 min at 60° C., and 50 μL scintillation cocktail was added to each well and 4 h later the amount of radioactivity was counted in a top counter.
The IC50 was calculated using a non-linear curve fit with XLfit software (ID Business Solution Ltd., Guilford, Surrey, UK). […] Representative results are in Table 1.

| IC50 | SMILES |
| --- | --- |
| 0.565 µM and 2.31 µM and 0.526 µM | Cc1cc(Nc2nn(C(C)C)c(=O)c3cc(N4CCOCC4)ccc23)n[nH]1 [Example F-1, 2-Isopropyl-4-(5-methyl-1H-pyrazol-3-ylamino)-7-morpholino-2H-phthalazin-1-one] |
| 0.37 µM and 0.7 µM and 0.536 µM | Cc1cc(Nc2nn(C(C)C)c(=O)c3cc(N4CCN(C)CC4)ccc23)[nH]n1 [Example F-5, 2-Isopropyl-7-(4-methyl-piperazin-1-yl)-4-(5-methyl-2H-pyrazol-3-ylamino)-2H-phthalazin-1-one] |
| 1.86 µM | Cc1cc(Nc2nn(C(C)C)c(=O)c3cc(OCCN(C)C)ccc23)n[nH]1 [Example ZD-5, 7-(2-Dimethylamino-ethoxy)-2-isopropyl-4-(5-methyl-1H-pyrazol-3-ylamino)-2H-phthalazin-1-one] |
